Measurements from patent US20250346613A1, “BORIC ACID PROTEASOME INHIBITOR AND USE THEREOF” (ARTIVILA BIOPHARMA, priority 2022, published 2025).

Key:
Assay type in all cases: cell-based
[1] = target: T1, β5c subunit of the 20S proteasome (Homo sapiens, UniProt P20618+P28074); assay: Proteasome inhibitory activity, β5c subunit (Raji cells treated with compound, lysed, Suc-LLVY-AMC substrate); conditions: proteasome from Raji cells incubated with compound 4 h
T1 construct: The proteasome tested in the present disclosure was derived from Raji cells; endogenous in cells; host or cells: Raji cells
Text: (§1) In the present disclosure, the fluorescent peptide substrate Ac-Ala-Asn-Trp-AMC (abbreviated as Ac-ANW-AMC) and the […] kit containing a fluorescent peptide substrate Suc-Leu-Leu-Val-Tyr-AMC (abbreviated as Suc-LLVY-AMC) (Promega, Item No. G8660) were used to detect the activities of the β5i subunit and β5c subunit of the 20S proteasome, respectively.
(§2) The proteasome tested in the present disclosure was derived from Raji cells, the fluorescent substrate Ac-ANW-AMC was purchased from Roche company, and other reagents were purchased from Sigma company. The experimental system was divided into two parts of cell lysis system and enzyme reaction system. […] The starting concentration of the compound (inhibitor) was 1 μM. It was diluted in a 3-fold serial dilution to a total of 8 concentrations, that is, the administration concentration can be 1 μM, 0.333 μM, 0.111 μM . . . , respectively, and the specific experimental process was described below.
(§3) Raji cells (1×10^6 cells) cryopreserved in liquid nitrogen were thawed rapidly in a water bath at 37° C. The cell pellet was transferred to a 15 mL centrifuge tube, added with 9 mL of fresh medium (Gibco RPMI1640 added with 10% fetal bovine serum and 1% double antibiotics), centrifuged at 120 g for 5 min, inoculated to 25 mL cell culture flasks, and passaged once every 2-3 days.
(§4) The compound was weighed and dissolved in DMSO to a concentration of 10 mM. The compound was then sequentially diluted to concentrations of 200 μM, 66.67 μM, 22.22 μM, 7.41 μM, 2.47 μM, 0.82 μM, 0.27 μM, and 0.091 μM with fresh medium. Raji cells in a good growth status were inoculated into a 48-well cell culture plate at 7×10^5 cells/mL.
(§5) Raji cells in a good growth status were taken and counted. They were then inoculated to a 48-well cell culture plate at 7×10^5 cells/mL. Each 5 μL of the various concentrations of diluted compounds above were taken and added to the culture plate inoculated with cells, and the lowest concentration of compound was 0 μM. The drug bortezomib (Velcade) and ONX-0914 were used as the positive control compounds. All cells were incubated at 37° C. for 4 h.
(§6) The compound-treated cells were sequentially transferred into 1.5 mL centrifuge tubes, centrifuged at 10000 rpm for 2 min, and the supernatants were removed. The cell pellet was resuspended in 1 mL of PBS, centrifuged at 10000 rpm for 2 min, and the supernatant was removed. Cells were resuspended by adding 100 μL of cell lysate (50 mM Tris of pH 7.5, 150 mM NaCl, 5 mM MgCl2, 5 mM ATP, 1 mM DTT, 0.01% NP-40, 1 mM Digitonin, and Cocktail), placed in an ice bath for 30 min, and centrifuged at 13000 rpm for 10 min.
(§7) 2 mg of fluorescent peptide substrate AC-ANW-AMC was dissolved in 424.7 μL of DMSO to obtain an 8 mM stock solution, and stored at −20° C. The stock solution was diluted 100-fold to a final concentration of […] for use in the reaction system. The fluorescent peptide substrate Suc-LLVY-AMC was prepared according to the instructions of the Promega kit.
(§8) Each 20 μL of the prepared proteasome solution above was added to a 96-well white luciferase microplate and added with 25 μL of AC-ANW-AM substrate buffer solution (50 mM Tris of pH 7.5, 150 mM NaCl, 5 mM MgCl2, 5 mM ATP, 80 uM Ac-ANW-AMC and 1 mM DTT) and 25 μL of Suc-LLVY-AMC substrate buffer solution for 10 min of reaction at 37° C. in the dark. Fluorescence values were read at 345 nm/445 nm by using a fluorence microplate reader.
(§9) The data were exported and the inhibition rate in percentage was calculated according to the following formula: Inhibition rate=(maximum signal value-compound signal value)/(maximum signal value−blank signal value)×100%.
(§10) Where the maximum signal was obtained from cell lysates treated with DMSO only, and the blank signal was obtained from wells containing only lysates.

[2] = target: T2, β5i subunit of the 20S proteasome (Homo sapiens, UniProt P20618+P28062); assay: Proteasome inhibitory activity, β5i subunit (Raji cells treated with compound, lysed, Ac-ANW-AMC substrate); conditions: proteasome from Raji cells incubated with compound 4 h
T2 construct: The proteasome tested in the present disclosure was derived from Raji cells; endogenous in cells; host or cells: Raji cells
Text: as §1, §2, §3, §4, §5, §6, §7, §8, §9, §10

MM.1S cell strain = assay: Inhibitory activity of cell strain (CellTiter-Glo); conditions: Homo sapiens, MM1.S, 72 h incubation
Method: The cells used in this experiment were MM.1S cell strain and the detection reagent was CellTiter-Glo (Promega). […] The experimental process was described below. MM.1S cells in the logarithmic growth phase and in a good status were digested into individual cells by trypsin, centrifuged to remove the supernatant, and counted. Cells were diluted and 100 μL of cell suspension per well was added to a 96-well enzyme-coated plate at 1×10^5 cells per well. The wells containing only RPMI1640 complete medium were set as blank control. The 96-well plate was transferred to a 37° C. incubator containing 5% CO2 for 24 h of incubation.
The compound was accurately weighed and dissolved in DMSO to a concentration of 10^−2 M. 10 μL of compound was pipetted to 190 μL of DMSO to given a 5×10^−4 M compound. 6 μL of the compound (5×10^−5 M) was pipetted to a new 96-well microplate containing 194 μL of RPMI1640 complete medium and diluted in a 3-fold gradient dilution. 50 μL of the diluted compound was transferred to the 96-well microplate containing the cells such that the final compound concentrations were 5×10^−7 M, 1.67×10^−7 M, 5.55×10^−8 M, 1.85×10^−8 M, 6.17×10^−9 M, 2.06×10^−9 M, 6.86×10^−10 M, 2.29×10^−10 M, and 0 M. For the 0 M, no compound was added, and the same concentration of DMSO was added. The marketed drug bortezomib was used as a positive control. The 96-well microplate added with compounds was placed in the 37° C. incubator for 72 h of incubation.
At the predetermined detection time, the 96-well microplate to be detected was placed at room temperature, added with 40 μL of detection reagent (CellTiter-Glo) per well, and covered with a dark lid or piece of aluminium foil. The contents were mixed on an orbit oscillator for 10 min for complete cell lysis, with a vibration speed of 150 rpm. Luminescence values were detected on a multifunctional microplate reader (BioTek Synergy H1 Hybrid Multi-Mode Reade).
The data were exported and the percentage inhibition was calculated according to the following formula: Inhibition rate=(maximum signal value-compound signal value)/(maximum signal value−blank signal value)×100%, • wherein maximum signal was obtained from alone DMSO-treated cells, and blank signal was obtained from wells containing only culture medium.

| IC50 [1] [nM] | IC50 [2] [nM] | IC50 (MM.1S cell strain) [nM] | Compound |
| --- | --- | --- | --- |
| 50 to 200 | ≤ 50 | 200 to 500 | O=C(CCC(=O)N[C@@H](Cc1ccccc1)B(O)O)NCc1ccccc1 [Example 16, (R)-(1-(4-(benzylamino)-4-oxobutanoylamino)-2-phenylethyl)boric acid] |
|  |  | 50 to 200 | [2H]/C(C(=O)NCc1ccccc1)=C(/[2H])C(=O)N[C@@H](Cc1ccccc1)B(O)O [Example 17, (R,E)-(1-(4-(benzylamino)-4-oxobut-2-enamido-2,3-D2)-2-phenylethyl)boric acid] |
|  |  | ≤ 50 | COc1cccc(CNC(=O)C(F)C(=O)N[C@@H](Cc2ccccc2)B(O)O)c1 (stereo partly drawn) [Example 102, ((1R)-1-(2-fluoro-3-((3-methoxybenzyl)amino)-3-oxopropionamido)-2-phenylethyl)boric acid] |
|  |  | ≤ 50 | COc1cccc(CNC(=O)C(Cc2ccccc2)C(=O)N[C@@H](Cc2ccc(-c3ccccc3)cc2)B(O)O)c1 (stereo partly drawn) [Example 72, ((1R)-2-([1,1′-biphenyl]-4-yl)-1-(2-benzyl-3-((3-methoxybenzyl)amino)-3-oxopropionamido)ethyl)boric acid] |
|  |  | ≤ 50 | COc1cccc(CNC(=O)C(C(=O)N[C@@H](Cc2ccc(-c3ccccc3)cc2)B(O)O)C(C)C)c1 (stereo partly drawn) [Example 76, ((1R)-2-([1,1′-biphenyl]-4-yl)-1-(2-((3-methoxybenzyl)carbamoyl)-3-methylbutanamido)ethyl)boric acid] |
|  |  | ≤ 50 | O=C(NCc1cccc(OC(F)(F)F)c1)C(F)C(=O)N[C@@H](Cc1ccccc1)B(O)O (stereo partly drawn) [Example 95, ((1R)-1-(2-fluoro-3-oxo-3-((3-(trifluoromethoxy)benzyl)amino)propionamido)-2-phenylethyl)boric acid] |
|  |  | 50 to 200 | COc1cccc(NC(=O)C(C)C(=O)N[C@@H](Cc2ccccc2)B(O)O)c1 (stereo partly drawn) [Example 67, ((1R)-1-(3-((3-methoxyphenyl)amino)-2-methyl-3-oxopropionamido)-2-phenylethyl)boric acid] |
|  | 50 to 200 | 50 to 200 | O=C(/C=C/C(=O)N[C@@H](Cc1ccccc1)B(O)O)Nc1ccccc1 [Example 8] |
|  |  | ≤ 50 | COc1cccc(CNC(=O)C(Cc2ccccc2)C(=O)N[C@@H](Cc2coc3ccccc23)B(O)O)c1 (stereo partly drawn) [Example 71, ((1R)-2-(benzofuran-3-yl)-1-(2-benzyl-3-((3-methoxybenzyl)amino)-3-oxopropionamido)ethyl)boric acid] |
|  |  | 200 to 500 | O=C(/C=C/C(=O)N[C@@H](Cc1ccccc1)B(O)O)NCc1cc(Cl)ccc1Cl [Example 12] |
|  |  | 50 to 200 | COc1ccc(NC(=O)C(C)C(=O)N[C@@H](Cc2ccc(C)cc2)B(O)O)cc1 (stereo partly drawn) [Example 70, ((1R)-1-(3-((4-methoxyphenyl)amino)-2-methyl-3-oxopropionamido)-2-(p-tolyl)ethyl)boric acid] |
|  |  | ≤ 50 | COc1cccc(CNC(=O)C(F)C(=O)N[C@@H](Cc2ccc(C)cc2)B(O)O)c1 (stereo partly drawn) [Example 103, ((1R)-1-(2-fluoro-3-((3-methoxybenzyl)amino)-3-oxopropionamido)-2-(p-tolyl)ethyl)boric acid] |
|  |  | 50 to 200 | COc1cccc(CCNC(=O)C(C)C(=O)N[C@@H](Cc2ccccc2)B(O)O)c1 (stereo partly drawn) [Example 61, ((1R)-1-(3-((3-methoxyphenylethyl)amino)-2-methyl-3-oxopropionamido)-2-phenylethyl)boric acid] |
|  |  | ≤ 50 | Cc1ccc(C[C@H](NC(=O)C(F)C(=O)NCc2cccc(OC(F)(F)F)c2)B(O)O)cc1 (stereo partly drawn) [Example 96, ((1R)-1-(2-fluoro-3-oxo-3-((3-(trifluoromethoxy)benzyl)amino)propionamido)-2-(p-tolyl)ethyl)boric acid] |
|  |  | 200 to 500 | Cc1ccc(CNC(=O)/C=C/C(=O)N[C@@H](CC(C)C)B(O)O)cc1 [Example 11] |
|  |  | ≤ 50 | O=C(NCc1cccc(OC(F)(F)F)c1)C(F)C(=O)N[C@@H](Cc1coc2ccccc12)B(O)O (stereo partly drawn) [Example 97, ((1R)-2-(Benzofuran-3-yl)-1-(2-fluoro-3-oxo-3-((3-(trifluoromethoxy)benzyl)amino)propionamido)ethyl)boric acid] |
|  |  | ≤ 50 | COc1cccc(CNC(=O)C(F)C(=O)N[C@@H](Cc2coc3ccccc23)B(O)O)c1 (stereo partly drawn) [Example 104, ((1R)-2-(benzofuran-3-yl)-1-(2-fluoro-3-((3-methoxybenzyl)amino)-3-oxopropionamido)ethyl)boric acid] |
|  |  | ≤ 50 | CC(C(=O)NCc1cccc(OC(F)(F)F)c1)C(=O)N[C@@H](Cc1ccc(-c2ccccc2)cc1)B(O)O (stereo partly drawn) [Example 74, ((1R)-2-([1,1′-biphenyl]-4-yl)-1-(2-methyl-3-oxo-3-((3-(trifluoromethoxy)benzyl)amino)propanamido)ethyl)boronic acid] |
|  |  | 200 to 500 | Cc1ccc(C[C@H](NC(=O)C(F)(F)C(=O)NCc2cccc(OC(F)(F)F)c2)B(O)O)cc1 [Example 98, (R)-(1-(2,2-difluoro-3-oxo-3-((3-(trifluoromethoxy)benzyl)amino)propionamido)-2-(p-tolyl)ethyl)boric acid] |
|  |  | ≤ 50 | CC(C(=O)NCc1cccc(C(F)(F)F)c1)C(=O)N[C@@H](Cc1ccc(-c2ccccc2)cc1)B(O)O (stereo partly drawn) [Example 78, ((1R)-2-([1,1′-biphenyl]-4-yl)-1-(2-methyl-3-oxo-3-((3-(trifluoromethyl)benzyl)amino)propionamido)ethyl)boric acid] |
|  |  | ≤ 50 | COc1cccc(CCNC(=O)C(F)C(=O)N[C@@H](Cc2coc3ccccc23)B(O)O)c1 (stereo partly drawn) [Example 101, ((1R)-2-(Benzofuran-3-yl)-1-(2-fluoro-3-((3-methoxyphenylethyl)amino)-3-oxopropionamido)ethyl)boric acid] |
|  |  | ≤ 50 | Cc1ccc(C[C@H](NC(=O)C(C)C(=O)NCc2cccc(OC(F)(F)F)c2)B(O)O)cc1 (stereo partly drawn) [Example 86, ((1R)-1-(2-methyl-3-oxo-3-((3-(trifluoromethoxy)benzyl)amino)propionamido)-2-(p-tolyl)ethyl)boric acid] |
